From US12227512B2, “Benzimidazoles and methods of using same” (priority 2019, dated 2025)

What was measured:
[1] = Mouse PK evaluation, plasma, IV; settings: CD-1 mice; for concentration at 0.083 h / concentration at 0.25 h / concentration at 0.5 h / concentration at 1 h / concentration at 2 h / concentration at 4 h / concentration at 8 h / concentration at 24 h: Plasma concentration; for AUC(0-t): AUClast
[2] = system: MB002 cells; assay: MTT assay, cell proliferation; type: cell-based; settings: MB002, read-out: Dose E1
[3] = system: SARS-CoV-2; settings: SARS-CoV-2-infected Vero E6 cells; 6 concentrations, 48 hours; XTT
[4] = system: Gli-luciferace activity in the SUFU-KO-light cells; assay: SUFU-KO-Light assay, inhibition of Gli-luciferase activity; type: cell-based; settings: read-out: IC50 (μM) SUFU-KO-Light; inhibition of Gli-luciferase activity; listed as Isis-11 (+isomer/E1)
Excerpt: IC50 SUFO-KO-Light values are for inhibition of Gli-luciferace activity in the SUFU-KO-light cells developed by the James Chen laboratory at Stanford University.

[5] = CD-1, mouse, in vivo, 3 mg/kg, Mean, 3 mg/kg IV
[6] = CD-1, mouse, in vivo, 3 mg/kg, Mouse 1, 3 mg/kg IV
[7] = CD-1, mouse, in vivo, 3 mg/kg, Mouse 2, 3 mg/kg IV
[8] = CD-1, mouse, in vivo, 3 mg/kg, Mouse 3, 3 mg/kg IV

CN(C)CCCn1c(N)nc2ccc3c(c21)CC(CN(C)C)O3 (single isomer, unassigned) [Compound E1]
AUC_%Extrap_obs, Mean ([1]; 3 mg/kg IV): 20.8% | AUC_%Extrap_obs, Mouse 1 ([1]; 3 mg/kg IV): 25.7% | AUC_%Extrap_obs, Mouse 2 ([1]; 3 mg/kg IV): 20.8% | AUC_%Extrap_obs, Mouse 3 ([1]; 3 mg/kg IV): 15.9% | AUClast/D, Mean ([1]; 3 mg/kg IV): 116 | AUClast/D, Mouse 1 ([1]; 3 mg/kg IV): 107 | AUClast/D, Mouse 2 ([1]; 3 mg/kg IV): 108 | AUClast/D, Mouse 3 ([1]; 3 mg/kg IV): 132 | C0, Mean ([1]; 3 mg/kg IV): 664 ng/mL | C0, Mouse 1 ([1]; 3 mg/kg IV): 619 ng/mL | C0, Mouse 2 ([1]; 3 mg/kg IV): 624 ng/mL | C0, Mouse 3 ([1]; 3 mg/kg IV): 749 ng/mL | Cl_obs, Mean ([1]; 3 mg/kg IV): 115 mL/min/kg | Cl_obs, Mouse 1 ([1]; 3 mg/kg IV): 116 mL/min/kg | Cl_obs, Mouse 2 ([1]; 3 mg/kg IV): 122 mL/min/kg | Cl_obs, Mouse 3 ([1]; 3 mg/kg IV): 106 mL/min/kg | Vss_obs, Mean ([1]; 3 mg/kg IV): 90 L/kg | Vss_obs, Mouse 1 ([1]; 3 mg/kg IV): 104 L/kg | Vss_obs, Mouse 2 ([1]; 3 mg/kg IV): 96.2 L/kg | Vss_obs, Mouse 3 ([1]; 3 mg/kg IV): 68.3 L/kg | Plasma concentration, Mouse 1 ([1]; 3 mg/kg IV, 0.5 h): 45.5 ng/mL | Plasma concentration, Mouse 1 ([1]; 3 mg/kg IV, 1 h): 21.4 ng/mL | Plasma concentration, Mouse 1 ([1]; 3 mg/kg IV, 2 h): 13.4 ng/mL | Plasma concentration, Mouse 1 ([1]; 3 mg/kg IV, 24 h): 10.0 ng/mL | Plasma concentration, Mouse 3 ([1]; 3 mg/kg IV, 24 h): 4.33 ng/mL | concentration at 0.083 h [1, 5]: 387 ng/mL | concentration at 0.25 h [1, 5]: 131 ng/mL | concentration at 0.5 h ([1]; CD-1, mouse, in vivo, 3 mg/kg, Mean, 3 mg/kg IV, 0.5 h): 59.1 ng/mL | concentration at 1 h ([1]; CD-1, mouse, in vivo, 3 mg/kg, Mean, 3 mg/kg IV, 1 h): 42.9 ng/mL | concentration at 2 h ([1]; CD-1, mouse, in vivo, 3 mg/kg, Mean, 3 mg/kg IV, 2 h): 17.8 ng/mL | concentration at 4 h [1, 5]: 13.5 ng/mL | concentration at 8 h [1, 5]: 7.3 ng/mL | concentration at 24 h ([1]; CD-1, mouse, in vivo, 3 mg/kg, Mean, 3 mg/kg IV, 24 h): 6.1 ng/mL | concentration at 0.083 h [1, 6]: 352 ng/mL | concentration at 0.25 h [1, 6]: 113 ng/mL | concentration at 4 h [1, 6]: 13.3 ng/mL | concentration at 8 h [1, 6]: 5.5 ng/mL | concentration at 0.083 h [1, 7]: 367 ng/mL | concentration at 0.25 h [1, 7]: 126 ng/mL | concentration at 0.5 h ([1]; CD-1, mouse, in vivo, 3 mg/kg, Mouse 2, 3 mg/kg IV, 0.5 h): 60.9 ng/mL | concentration at 1 h ([1]; CD-1, mouse, in vivo, 3 mg/kg, Mouse 2, 3 mg/kg IV, 1 h): 51.8 ng/mL | concentration at 2 h ([1]; CD-1, mouse, in vivo, 3 mg/kg, Mouse 2, 3 mg/kg IV, 2 h): 20.7 ng/mL | concentration at 4 h [1, 7]: 12.9 ng/mL | concentration at 8 h [1, 7]: 6.2 ng/mL | concentration at 24 h ([1]; CD-1, mouse, in vivo, 3 mg/kg, Mouse 2, 3 mg/kg IV, 24 h): 4.11 ng/mL | concentration at 0.083 h [1, 8]: 443 ng/mL | concentration at 0.25 h [1, 8]: 154 ng/mL | concentration at 0.5 h ([1]; CD-1, mouse, in vivo, 3 mg/kg, Mouse 3, 3 mg/kg IV, 0.5 h): 71 ng/mL | concentration at 1 h ([1]; CD-1, mouse, in vivo, 3 mg/kg, Mouse 3, 3 mg/kg IV, 1 h): 55.5 ng/mL | concentration at 2 h ([1]; CD-1, mouse, in vivo, 3 mg/kg, Mouse 3, 3 mg/kg IV, 2 h): 19.2 ng/mL | concentration at 4 h [1, 8]: 14.3 ng/mL | concentration at 8 h [1, 8]: 10.2 ng/mL | AUC(0-inf) ([1]; CD-1, mouse, in vivo, iv, 3 mg/kg, AUCInf, Mouse 3, 3 mg/kg IV): 470 ng·h/mL | AUC(0-t) ([1]; CD-1, mouse, in vivo, iv, 3 mg/kg, Mean, 3 mg/kg IV): 347 ng·h/mL | AUC(0-t) ([1]; CD-1, mouse, in vivo, iv, 3 mg/kg, Mouse 1, 3 mg/kg IV): 321 ng·h/mL | AUC(0-t) ([1]; CD-1, mouse, in vivo, iv, 3 mg/kg, Mouse 2, 3 mg/kg IV): 324 ng·h/mL | AUC(0-t) ([1]; CD-1, mouse, in vivo, iv, 3 mg/kg, Mouse 3, 3 mg/kg IV): 395 ng·h/mL | MRT inf ([1]; CD-1, mouse, in vivo, iv, 3 mg/kg, MRTInf_obs, Mouse 3, 3 mg/kg IV): 10.7 h | half-life ([1]; CD-1, mouse, in vivo, iv, 3 mg/kg, T1/2, Mouse 3, 3 mg/kg IV): 12 h | IC50 [2]: 16.5 µM | effect on viral replication over the tested concentration range [3]: no effect on viral replication | IC50 [4]: 5 µM
